Measurements taken from patent US8841285B2, “Potent immunosuppressive agents, derivatives and uses” (priority 2002, dated 2014).

Tests used:
RKO cells = assay: cell proliferation assay, RKO cells; format: cell-based; conditions: Homo sapiens
Protocol: Cell Proliferation Assay. 1×10^5 of indicated cells in each well of a 96-well plate were treated with indicated compounds for 24 h followed by addition of 0.11 μCi of [^3H]-thymidine (6.7 Ci/mmol) per well for 6 h, followed by harvesting to GF/C filtermats using a cell harvester. Filtermats were air-dried and scintillation counted. IC50s were determined from quadruplicate data readings and curve-fitting analysis.

HeLa cells = format: cell-based
[1] = test system: cap-dependent translation; assay: in vitro translation in RRL, bicistronic reporter, cap-dependent cistron; format: biochemical, rabbit; conditions: HCV IRES bicistronic reporter
Protocol: In vitro Translation and Transcription. pSP/(CAG)33/FF/HCV/Ren·pA51 and pKS/FF/EMC/Ren were linearized by BamHI, then purified by phenol:chloroform extraction and ethanol precipitation, and dissolved in water. pSP/(CAG)33/FF/HCV/Ren·A51 and pKS/FF/EMC/Ren were individually transcribed using a large scale RNA production system in the presence of m7Gppp cap analog followed by incubation with DNase as described by the manufacturer. Resulting RNA was purified using a kit as described by the manufacturer. Translation was performed using a rabbit reticulocyte lysate system as per instructions. Briefly, 200 ng of purified RNA was combined in a 20 μl reaction containing 10 μl RRL, 0.2 μl each of minus Met and minus Leu amino acid mixtures, 70 mM KCl, 2 mM DTT, 1× translation buffer, and 10 units of RNasin. Compounds or DMSO were added to a final DMSO concentration of 2%. Reactions were incubated at 30° C. for 1.5 h, then 5 μl of the reaction mixture was assayed for luciferase activity as per instructions of luciferas reporter assay system.

293T cells = assay: cellular polyribosome profiles; format: cell-based; conditions: 30 min treatment
Protocol: Cellular polyribosome profiles. 293T cells were treated as indicated for 30 min. Cells were washed twice with ice-cold PBS and pipetted for 5 min in 500 μl of chilled TMK100 buffer (20 mM Tris-HCl pH 7.4, 5 mM MgCl2 100 mM KCl, 2 mM DTT, 1% Triton X-100 and 100 U/ml RNAsin in DEPC water). After clearing at 10,000×g (10 min) at 4° C., the supernatant (S10) was layered onto 11 ml, 15-45% linear sucrose gradient containing 20 mM HEPES pH 7.4, 100 mM KCl, 5 mM MgCl2 and 2 mM DTT. Ultracentrifugation at 40,000 rpm for 1.5 h at 4° C. was performed in a suitable rotor. Fractions were collected from the top of the gradient by injection of Flurinert FC-40 from bottom of centrifuge tube. Gradient profiles were monitored at 254 nm. For immunoblotting, 7 mg of total protein were processed as described above, followed by collection of 500 μl fractions were collected from the top. 100 μl aliquots of each were boiled in SDS sample buffer, followed by SDS-PAGE and immunoblotting.

| Compound | IC50 (RKO cells) | stress granule formation (HeLa cells) | inhibition of cap- versus HCV IRES-dependent translation [1] | effect on polysome profile (293T cells) |
| --- | --- | --- | --- | --- |
| CC(/C=C/C(C)=C/[C@@H]1Cc2nc(cs2)[C@@H](C)CC(NCC(=O)NCCOCCOCCNC(=O)CCCC[C@@H]2SCC3NC(=O)NC32)CC(=O)O[C@@H](C)C/C(C)=C/C=C\C(=O)O1)=C\CN(C)C (some centres unmarked) [B-PatA, Biotin-PEO-Pateamine A] | < 15 nM | – | – | – |
| arsenite | – | eIF4B co-localized with TIA-1 in stress granules | – | – |
| C[C@@H]1C[C@@H]([C@H](O)CC2CC(=O)NC(=O)C2)C(=O)[C@@H](C)C1 [CHX, cycloheximide] | – | did not induce stress granule formation | nearly equal inhibition | did not perturb the sucrose gradient profile |
